Tests used:
IKKε = IKKε (Homo sapiens (Human), UniProt Q14164); assay: TR-FRET kinase assay, IKKε; assay type: biochemical; conditions: full length recombinant IKKε 0.3 nM, 2x Km ATP, 1 μM peptide, 240 min at 25° C.; geometric mean of minimum four determinations
Description: Biological Assay for TBK1 and IKKs:

TBK1 = TBK1 (Homo sapiens (Human), UniProt Q9UHD2); assay: TR-FRET kinase assay, TBK1; conditions: read-out: TBK1-IC50; full length recombinant TBK1 2.5 nM, 2x Km ATP, 1 μM peptide, 240 min at 25° C.; geometric mean of minimum four determinations
TBK1, sequence (Q9UHD2 whole entry): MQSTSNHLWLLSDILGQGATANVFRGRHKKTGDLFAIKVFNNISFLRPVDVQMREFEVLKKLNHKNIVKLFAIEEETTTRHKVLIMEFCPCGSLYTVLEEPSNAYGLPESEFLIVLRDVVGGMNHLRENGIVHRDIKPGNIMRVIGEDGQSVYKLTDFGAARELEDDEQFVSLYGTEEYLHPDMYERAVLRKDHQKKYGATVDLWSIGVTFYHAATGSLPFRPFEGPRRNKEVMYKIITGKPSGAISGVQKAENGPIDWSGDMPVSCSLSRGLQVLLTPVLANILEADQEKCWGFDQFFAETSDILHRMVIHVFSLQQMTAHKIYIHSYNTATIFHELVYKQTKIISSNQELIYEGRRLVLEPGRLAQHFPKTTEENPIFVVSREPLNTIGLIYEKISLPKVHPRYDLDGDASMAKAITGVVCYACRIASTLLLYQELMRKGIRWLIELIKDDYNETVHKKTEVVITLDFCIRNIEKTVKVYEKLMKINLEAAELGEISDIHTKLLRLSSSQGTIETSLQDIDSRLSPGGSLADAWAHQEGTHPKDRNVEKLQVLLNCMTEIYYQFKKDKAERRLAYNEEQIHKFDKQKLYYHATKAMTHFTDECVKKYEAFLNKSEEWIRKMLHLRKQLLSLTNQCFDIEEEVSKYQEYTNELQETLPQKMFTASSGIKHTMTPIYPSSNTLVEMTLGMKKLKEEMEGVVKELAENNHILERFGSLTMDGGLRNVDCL

IKKε, sequence (Q14164 whole entry): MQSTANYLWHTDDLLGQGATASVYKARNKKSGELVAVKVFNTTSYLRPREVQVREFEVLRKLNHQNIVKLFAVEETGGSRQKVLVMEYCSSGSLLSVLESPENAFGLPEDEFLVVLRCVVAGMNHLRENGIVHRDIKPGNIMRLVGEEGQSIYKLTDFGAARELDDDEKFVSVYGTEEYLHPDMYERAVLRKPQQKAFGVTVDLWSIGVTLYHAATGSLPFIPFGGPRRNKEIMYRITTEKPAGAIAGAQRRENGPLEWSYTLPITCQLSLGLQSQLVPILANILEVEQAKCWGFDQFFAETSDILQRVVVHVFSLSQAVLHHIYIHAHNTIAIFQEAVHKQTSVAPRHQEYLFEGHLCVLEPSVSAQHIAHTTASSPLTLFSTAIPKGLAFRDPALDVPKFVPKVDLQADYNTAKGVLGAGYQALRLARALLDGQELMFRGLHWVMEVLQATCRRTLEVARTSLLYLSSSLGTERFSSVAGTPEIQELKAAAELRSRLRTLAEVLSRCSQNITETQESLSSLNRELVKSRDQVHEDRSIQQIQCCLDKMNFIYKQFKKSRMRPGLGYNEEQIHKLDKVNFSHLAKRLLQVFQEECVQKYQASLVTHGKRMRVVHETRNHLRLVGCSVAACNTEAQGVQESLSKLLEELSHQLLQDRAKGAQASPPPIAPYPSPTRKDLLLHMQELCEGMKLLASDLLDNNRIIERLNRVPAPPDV

SMILES | IC50 (IKKε) [nM] | IC50 (TBK1) [nM]
N#Cc1cc(-c2ncnc3[nH]c(-c4ccc(N5CCOCC5)c(F)c4)nc23)ccc1OC1CCOCC1 [Example 242, 5-(8-(3-fluoro-4-morpholinophenyl)-9H-purin-6-yl)-2-((tetrahydro-2H-pyran-4-yl)oxy)benzonitrile] | 1000 | 3.33
N#Cc1cc(-c2ncnc3[nH]c(Nc4cccc(N5CCOCC5)c4)nc23)ccc1OC1CCOCC1 [Example 194, 5-(8-((3-morpholinophenyl)amino)-9H-purin-6-yl)-2-((tetrahydro-2H-pyran-4-yl)oxy)benzonitrile] | 564 | 298
COc1ccc(C#N)cc1-c1ncnc2[nH]c(-c3ccc(N4CCOCC4)cc3)cc12 [Example 133, 4-methoxy-3-(6-(4-morpholinophenyl)-7H-pyrrolo[2,3-d]pyrimidin-4-yl)benzonitrile] | 1000 | 1000
N#Cc1cc(-c2ccnc3[nH]c(-c4ccc(N5CCOCC5)cc4)nc23)ccc1OC1CCNCC1 [Example 197, 5-(2-(4-morpholinophenyl)-3H-imidazo[4,5-b]pyridin-7-yl)-2-(piperidin-4-yloxy)benzonitrile] | 109 | 29.1
CC(C)(C)OC(=O)N1CC=C(c2cc3c(-c4ccc(OC5CCOCC5)c(C#N)c4)ccnc3[nH]2)C1 [Example 36, tert-butyl 3-(4-(3-cyano-4-((tetrahydro-2H-pyran-4-yl)oxy)phenyl)-1H-pyrrolo[2,3-b]pyridin-2-yl)-2,5-dihydro-1H-pyrrole-1-carboxylate] | 79 | 38.4
CS(=O)(=O)N1CCC(Oc2ccc(-c3ncnc4[nH]c(-c5ccc(N6CCOCC6)cc5)nc34)cc2C#N)CC1 [Example 253, 2-((1-(methylsulfonyl)piperidin-4-yl)oxy)-5-(8-(4-morpholinophenyl)-9H-purin-6-yl)benzonitrile] | 39.8 | 19.8
N#Cc1cc(-c2ccnc3[nH]c(-c4ccc(N5CCN(C6COC6)CC5)cc4)cc23)ncc1OC1CCN(C(=O)CO)CC1(F)F (stereo not drawn) [Example 176, 5-((3,3-difluoro-1-(2-hydroxyacetyl)piperidin-4-yl)oxy)-2-(2-(4-(4-(oxetan-3-yl)piperazin-1-yl)phenyl)-1H-pyrrolo[2,3-b]pyridin-4-yl)isonicotinonitrile] | 1.44 | 1.81
CN1CCN(c2ccc(-c3cc4c(-c5ccc(OC6CCOCC6)c(C#N)c5)ncnc4[nH]3)cc2)CC1 [Example 219, 5-(6-(4-(4-methylpiperazin-1-yl)phenyl)-7H-pyrrolo[2,3-d]pyrimidin-4-yl)-2-((tetrahydro-2H-pyran-4-yl)oxy)benzonitrile] | 3.37 | 2.5
CC1(C)C(=O)Nc2cc(-c3cc4c(-c5ccc(OC6CCOCC6)c(C#N)c5)ccnc4[nH]3)ccc21 [Example 76, 5-(2-(3,3-dimethyl-2-oxoindolin-6-yl)-1H-pyrrolo[2,3-b]pyridin-4-yl)-2-((tetrahydro-2H-pyran-4-yl)oxy)benzonitrile] | > 1000 | 5.76
CN(C)C(=O)/C=C/c1cc2c(-c3ccc(OC4CCOCC4)c(C#N)c3)ccnc2[nH]1 [Example 179, 3-(4-(3-cyano-4-((tetrahydro-2H-pyran-4-yl)oxy)phenyl)-1H-pyrrolo[2,3-b]pyridin-2-yl)-N,N-dimethylacrylamide] | 69.8 | 103
N#Cc1cc(-c2c(F)cnc3[nH]c(-c4ccc(N5CCOCC5)cc4)cc23)ccc1OC1CCOCC1 [Example 47, 5-(5-fluoro-2-(4-morpholinophenyl)-1H-pyrrolo[2,3-b]pyridin-4-yl)-2-((tetrahydro-2H-pyran-4-yl)oxy)benzonitrile] | 17.5 | 4.05
CN1CCN(c2ccc(-c3nc4c(-c5ccc(OC6CCNCC6)c(C#N)c5)ncnc4[nH]3)cc2)CC1 [Example 247, 5-(8-(4-(4-methylpiperazin-1-yl)phenyl)-9H-purin-6-yl)-2-(piperidin-4-yloxy)benzonitrile] | 16.8 | 11.3

From patent publication US10072001B2, “Tank-binding kinase inhibitor compounds” (Gilead Sciences, Inc., priority 2014, dated 2018)
